{
  "source": "patent US20230322822A1",
  "about": "“ARYL PHOSPHOROUS OXIDE COMPOUNDS AND USE THEREOF” (Chengdu Di'ao Jiuhong Pharmaceutical Factory, priority 2020, published 2023)",
  "key": {"NCI-H3122 cells": {"test_system": "NCI-H3122 cells", "assay": "In vivo pharmacodynamic study, subcutaneously implanted tumor NCI-H3122 (two-sided model)", "design": "species or system BALB/c nude mouse", "description": "Passages were treated twice a week. When the cell number reached requirement, the cells were collected, counted and inoculated.\nAdministration mode and frequency: oral gavage was carried out with an administration volume of 10 mL/kg, and the model group was administered with the same volume of solvent. The administration was once per day and continuously carried out for 16 days.\nGeneral conditions such as spirit, activity, food intake and the like of the mice were observed every day, and the weight was measured thrice every week; the short diameter (a) and the long diameter (b) of each mouse tumor were measured thrice a week with a vernier caliper, and the tumor volume was calculated according to the formula (a^2×b)/2. The Relative Tumor Volume (RTV) was calculated from the measured tumor volume, wherein RTV=Vt/V0, wherein V0 was the tumor volume at random grouping (i.e., d0) and Vt was the tumor volume at each measurement (i.e., dn). The relative tumor proliferation rate of the evaluation index of the anti-tumor activity was calculated according to the following formula: relative tumor proliferation rate T/C (%): […]\nNote: TRTV: treatment group RTV; CRTV model control group RTV."}, "[1]": {"assay": "Pharmacokinetic test in SD rats", "format": "in vivo", "conditions": "male, rat, plasma, PO, 20 mg/kg", "description": "Six SD rats were taken, which were all male, and about 8-9 weeks old, weighing about 430 g/rat, and fasting but allowed to drink water for 18 hours.\nThe rats were divided into two groups, wherein the rats in group 1 were dosed with compound 2 and the rats in group 2 were dosed with control compound 4, both orally and intragastrically in a dose of 20 mg/kg. A lavage fluid was prepared using 70 mM citric acid buffer (pH 3.0) at an administration volume of 5 mL/kg.\n0.6 mL of blood (EDTA-2K anti-coagulated) was collected from rat orbits at 0.5, 1.5, 3, 4.5, 8, 12, 24, 36, 48 and 72 hours after the administration respectively. The plasma was separated and stored at −70° C., and the plasma samples were analyzed using liquid chromatography tandem mass spectrometry (LC-MS/MS). The plasma concentration-time data of the individual rates was analyzed using a non-compartmental model of DAS3.3.1 software and pharmacokinetic parameters of the test compounds were calculated."}, "[2]": {"assay": "Single administration toxicity test, orally intragastric administration to SD rats", "format": "in vivo", "conditions": "for Mortality Female: 5 female rats; for Mortality Female / Mortality Male / Mortality/total number of animals: day 15; for Mortality Male: 5 male rats", "description": "8-week-old SD rats, 10 per group, male and female half, were purchased from Beijing SiPeiFu. The rats were tested after 3 days of acclimatization in this laboratory. The oral administration was performed by intragastric administration with an administration volume of 10 mL/kg. The rats were fasted and not forbidden to drink water for 17 hours before administration. The rats in the control group were given an equal volume of solvent via oral gavage. The feeding was resumed about 2 hours after the end of the administration.\nObservations were made twice daily after the administration. The day of first administration was defined as day 1 of the test. The test was carried out for 14 consecutive days, and ended in day 15."}, "[3]": {"conditions": "20 mg/kg oral gavage once per day"}, "[4]": {"conditions": "40 mg/kg oral gavage once per day"}},
  "data": [
    {"smiles": "COc1cc(N2CCC(N3CCN(C)CC3)CC2)c(C)cc1Nc1ncc(Br)c(Nc2ccc(C)cc2P(C)(C)=O)n1", "note": "[Compound 2]", "values": [
      {"measurement": "NCI-H3122 Tumor volume Day 0", "setting": "NCI-H3122 cells; [3]", "value": 116, "unit": "mm^3"},
      {"measurement": "NCI-H3122 T/C Day 2", "setting": "NCI-H3122 cells; [3]", "value": 81.79, "unit": "%"},
      {"measurement": "NCI-H3122 Tumor volume Day 2", "setting": "NCI-H3122 cells; [3]", "value": 115, "unit": "mm^3"},
      {"measurement": "NCI-H3122 T/C Day 4", "setting": "NCI-H3122 cells; [3]", "value": 49.46, "unit": "%"},
      {"measurement": "NCI-H3122 Tumor volume Day 4", "setting": "NCI-H3122 cells; [3]", "value": 92, "unit": "mm^3"},
      {"measurement": "NCI-H3122 T/C Day 6", "setting": "NCI-H3122 cells; [3]", "value": 34.18, "unit": "%"},
      {"measurement": "NCI-H3122 Tumor volume Day 6", "setting": "NCI-H3122 cells; [3]", "value": 84, "unit": "mm^3"},
      {"measurement": "NCI-H3122 T/C Day 9", "setting": "NCI-H3122 cells; [3]", "value": 19.71, "unit": "%"},
      {"measurement": "NCI-H3122 Tumor volume Day 9", "setting": "NCI-H3122 cells; [3]", "value": 74, "unit": "mm^3"},
      {"measurement": "NCI-H3122 T/C Day 11", "setting": "NCI-H3122 cells; [3]", "value": 13.58, "unit": "%"},
      {"measurement": "NCI-H3122 Tumor volume Day 11", "setting": "NCI-H3122 cells; [3]", "value": 63, "unit": "mm^3"},
      {"measurement": "NCI-H3122 T/C Day 13", "setting": "NCI-H3122 cells; [3]", "value": 10.25, "unit": "%"},
      {"measurement": "NCI-H3122 Tumor volume Day 13", "setting": "NCI-H3122 cells; [3]", "value": 58, "unit": "mm^3"},
      {"measurement": "NCI-H3122 T/C Day 16", "setting": "NCI-H3122 cells; [3]", "value": 8.16, "unit": "%"},
      {"measurement": "NCI-H3122 Tumor volume Day 16", "setting": "NCI-H3122 cells; [3]", "value": 61, "unit": "mm^3"},
      {"measurement": "NCI-H3122 Tumor volume Day 0", "setting": "NCI-H3122 cells; [4]", "value": 116, "unit": "mm^3"},
      {"measurement": "NCI-H3122 T/C Day 2", "setting": "NCI-H3122 cells; [4]", "value": 72.16, "unit": "%"},
      {"measurement": "NCI-H3122 Tumor volume Day 2", "setting": "NCI-H3122 cells; [4]", "value": 101, "unit": "mm^3"},
      {"measurement": "NCI-H3122 T/C Day 4", "setting": "NCI-H3122 cells; [4]", "value": 29.76, "unit": "%"},
      {"measurement": "NCI-H3122 Tumor volume Day 4", "setting": "NCI-H3122 cells; [4]", "value": 54, "unit": "mm^3"},
      {"measurement": "NCI-H3122 T/C Day 6", "setting": "NCI-H3122 cells; [4]", "value": 19.38, "unit": "%"},
      {"measurement": "NCI-H3122 Tumor volume Day 6", "setting": "NCI-H3122 cells; [4]", "value": 47, "unit": "mm^3"},
      {"measurement": "NCI-H3122 T/C Day 9", "setting": "NCI-H3122 cells; [4]", "value": 8.54, "unit": "%"},
      {"measurement": "NCI-H3122 Tumor volume Day 9", "setting": "NCI-H3122 cells; [4]", "value": 33, "unit": "mm^3"},
      {"measurement": "NCI-H3122 T/C Day 11", "setting": "NCI-H3122 cells; [4]", "value": 7.2, "unit": "%"},
      {"measurement": "NCI-H3122 Tumor volume Day 11", "setting": "NCI-H3122 cells; [4]", "value": 34, "unit": "mm^3"},
      {"measurement": "NCI-H3122 T/C Day 13", "setting": "NCI-H3122 cells; [4]", "value": 5.28, "unit": "%"},
      {"measurement": "NCI-H3122 Tumor volume Day 13", "setting": "NCI-H3122 cells; [4]", "value": 32, "unit": "mm^3"},
      {"measurement": "NCI-H3122 T/C Day 16", "setting": "NCI-H3122 cells; [4]", "value": 3.6, "unit": "%"},
      {"measurement": "NCI-H3122 Tumor volume Day 16", "setting": "NCI-H3122 cells; [4]", "value": 28, "unit": "mm^3"},
      {"measurement": "AUC(0-t)", "setting": "[1]", "value": 96300, "unit": "ng·h/mL"},
      {"measurement": "Cmax", "setting": "[1]", "value": 2310, "unit": "ng/mL"},
      {"measurement": "Mortality Female", "setting": "[2]; 25 mg/kg single dose", "value": 0},
      {"measurement": "Mortality Male", "setting": "[2]; 25 mg/kg single dose", "value": 0},
      {"measurement": "Mortality/total number of animals", "setting": "[2]; 25 mg/kg single dose", "value": "0/10"},
      {"measurement": "Mortality Female", "setting": "[2]; 75 mg/kg single dose", "value": 0},
      {"measurement": "Mortality Male", "setting": "[2]; 75 mg/kg single dose", "value": 0},
      {"measurement": "Mortality/total number of animals", "setting": "[2]; 75 mg/kg single dose", "value": "0/10"},
      {"measurement": "Mortality Female", "setting": "[2]; 100 mg/kg single dose", "value": 0},
      {"measurement": "Mortality Male", "setting": "[2]; 100 mg/kg single dose", "value": 0},
      {"measurement": "Mortality/total number of animals", "setting": "[2]; 100 mg/kg single dose", "value": "0/10"},
      {"measurement": "Mortality Female", "setting": "[2]; 125 mg/kg single dose", "value": 0},
      {"measurement": "Mortality Male", "setting": "[2]; 125 mg/kg single dose", "value": 0},
      {"measurement": "Mortality/total number of animals", "setting": "[2]; 125 mg/kg single dose", "value": "0/10"},
      {"measurement": "Mortality Female", "setting": "[2]; 150 mg/kg single dose", "value": 0},
      {"measurement": "Mortality Male", "setting": "[2]; 150 mg/kg single dose", "value": 1},
      {"measurement": "Mortality/total number of animals", "setting": "[2]; 150 mg/kg single dose", "value": "1/10"},
      {"measurement": "Mortality Female", "setting": "[2]; 200 mg/kg single dose", "value": 0},
      {"measurement": "Mortality Male", "setting": "[2]; 200 mg/kg single dose", "value": 0},
      {"measurement": "Mortality/total number of animals", "setting": "[2]; 200 mg/kg single dose", "value": "0/10"},
      {"measurement": "MTD at 14 days", "setting": "[2]; both sexes, rat, in vivo, po, SD rats, single orally intragastric administration, read-out: Maximum Tolerated Dose (MTD)", "value": 125, "unit": "mg/kg"}
    ]}
  ]
}
